Data from patent US8871681B2, “Herbicidal compositions comprising 4-amino-3-chloro-5-fluoro-6-(4-chloro-2-fluoro-3-methoxyphenyl) pyridine-2-carboxylic acid or a derivative thereof and certain sulfonylureas” (Dow AgroSciences LLC, priority 2012, dated 2014).

Tests used:
[1] = tested on: FIMMI (Fimbristylis miliacea, globe fringerush); experiment: In-water applied weed control, transplanted paddy rice, greenhouse (Example II); type: in vivo, Fimbristylis miliacea (L.) Vahl
Description: Weed seeds or nutlets of the desired test plant species were planted in puddled soil (mud) prepared by mixing a shredded, non-sterilized mineral soil (50.5 percent silt, 25.5 percent clay, and 24 percent sand, with a pH of about 7.6 and an organic matter content of about 2.9 percent) and water at a 1:1 volumetric ratio. The prepared mud was dispensed in 365 mL aliquots into 16-ounce (oz.) non-perforated plastic pots with a surface area of 86.59 square centimeters (cm^2) leaving a headspace of 3 centimeters (cm) in each pot. Rice seeds were planted in Sun Gro MetroMix® 306 planting mixture, which typically has a pH of 6.0 to 6.8 and an organic matter content of about 30 percent, in plastic plug trays. Seedlings at the second or third leaf stage of growth were transplanted into 860 mL of mud contained in 32-oz. non-perforated plastic pots with a surface area of 86.59 cm^2 4 days prior to herbicide application. The paddy was created by filling the headspace of the pots with 2.5 to 3 cm of water. When required to ensure good germination and healthy plants, a fungicide treatment and/or other chemical or physical treatment was applied. The plants were grown for 4-22 days in a greenhouse with an approximate 14 h photoperiod which was maintained at about 29′C during the day and 26° C. during the night. Nutrients were added as Osmocote® (19:6:12, N:P:K+minor nutrients) at 2 g per 16-oz. pot and 4 g per 32-oz. pot. Water was added on a regular basis to maintain the paddy flood, and supplemental lighting was provided with overhead metal halide 1000-Watt lamps as necessary. The plants were employed for testing when they reached the first through fourth true leaf stage.
(§1) Treatments consisted of the acid or esters of 4-amino-3-chloro-5-fluoro-6-(4-chloro-2-fluoro-3-methoxy-phenyl)pyridine-2-carboxylic acid (compound A) each formulated as an SC and various herbicidal components alone and in combination. Forms of compound A were applied on an acid equivalent basis.
Other herbicidal components were applied on an active ingredient basis and included acetolactate synthase (ALS)-inhibiting herbicides (sulfonylurea chemical class), azimsulfuron formulated as Gulliver®, bensulfuron-methyl formulated as Londax® 60DF, cyclosulfamuron (technical grade materail), ethoxysulfuron formulated as Sunrice® 15 WDG, flucetosulfuron formulated as Sukedachi® 1KG G, imazosulfuron formulated as Brazzos®, metsulfuron-methyl formulated as Lorate®, nicosulfuron formulated as Accent®, orthosulfamuron formulated as Strada® WG, propyrisulfuron formulated as Zeta One®, and rimsulfuron formulated as Matrix® WG.
Treatment requirements for each compound or herbicidal component were calculated based upon the rates being tested, the concentration of active ingredient or acid equivalent in the formulation, an application volume of 2 mL per component per pot, and an application area of 86.59 cm^2 per pot.
For formulated compounds, a measured amount was placed in an individual 100 or 200 mL glass vial and was dissolved in a volume of 1.25% (v/v) Agri-Dex® crop oil concentrate to obtain application solutions.
For technical grade compounds, a weighed amount was placed in an individual 100 to 200 mL glass vial and was dissolved in a volume of acetone to obtain concentrated stock solutions. […] The concentrated stock solutions obtained were diluted with an equivalent volume of an aqueous mixture containing 2.5% (v/v) crop oil concentrate so that the final application solutions contained 1.25% (v/v) crop oil concentrate.
Applications were made by injecting with a pipetter appropriate amounts of the application solutions, individually and sequentially, into the aqueous layer of the paddy. Control plants were treated in the same manner with the solvent blank. Applications were made so that all treated plant material received the same concentrations of acetone and crop oil concentrate. […]

[2] = tested on: SETFA (Setaria faberi, giant foxtail); experiment: Pre-emergence soil-applied weed control, greenhouse (Example V); type: in vivo, Setaria faberi Herrm.; conditions: Table 59 (pre-emergence)
Description: Seeds or nutlets of the desired test plant species were planted in a soil matrix prepared by mixing a loam soil (32 percent silt, 23 percent clay, and 45 percent sand, with a pH of about 6.5 and an organic matter content of about 1.9 percent) and calcareous grit in an 80 to 20 ratio. The soil matrix was contained in plastic pots with a volume of 1 quart and a surface area of 83.6 square centimeters (cm^2).
as §1, with “benzyl ester” for “acid or esters”, “A)” for “A) each”, “SC (suspension concentrate)” for “SC”
Other herbicidal components were applied on an acid equivalent or active ingredient basis and included the acetolactate synthase (ALS)-inhibiting herbicide, flazasulfuron, formulated as Katana®.
Treatment requirements were calculated based upon the rates being tested, the concentration of active ingredient or acid equivalent in the formulation, and a 12 mL application volume at a rate of 187 L/ha.
For treatments comprised of formulated compounds, measured amounts of compounds were placed individually in 25 mL glass vials and diluted in a volume of 1.25% (v/v) Agri-Dex® crop oil concentrate (COC) to obtain 12× stock solutions. […] Application solutions were prepared by adding an appropriate amount of each stock solution (e.g., 1 mL) and diluted to the appropriate final concentrations with the addition of 10 mL of an aqueous mixture of 1.25% (v/v) COC so that the final spray solutions contained 1.25% (v/v) COC. […]
The treated and control pots were placed in a greenhouse and top watered as needed. […] After approximately 4 weeks, the condition of the test plants as compared with that of the untreated plants was determined visually and scored on a scale of 0 to 100 percent where 0 corresponds to no injury or growth inhibition and 100 corresponds to complete kill. […]

In the case of `COc1c(Cl)ccc(-c2nc(C(=O)OCc3ccccc3)c(Cl)c(N)c2F)c1F` [Compound A Benzyl Ester], the “Visual Weed Control (%) - 21 DAA FIMMI Obs” value ([1]; Table 48, 8 gae/ha alone) is reported as 15%, the “Visual Weed Control (%) - 21 DAA FIMMI Obs” value ([1]; Table 48, 16 gae/ha alone) is reported as 65% and the “Visual Weed Control (%) - 21 DAA FIMMI Obs” value ([1]; Table 48, 32 gae/ha alone) is reported as 75%. The “Visual Weed Control (%) - 27 DAA SETFA Obs” value ([2]; 16 gae/ha alone) was 8% and the “Visual Weed Control (%) - 27 DAA SETFA Obs” value ([2]; 32 gae/ha alone) was 15%.
